Assay results: US20210403924A1, “Method for selecting cells based on CRISPR/Cas-mediated integration of a detectable tag to a target protein” (Hoffmann-La Roche Inc., priority 2018, published 2021)

What was measured:
Format in all cases: cell-based
human TUBA1B locus [1] = assay: Knock-in Strategy V1: eGFP knock-in at TUBA1B, puromycin single selection, FACS screen of clones for FITC signal; settings: HEK293A
Description: In the Knock-in Strategy V1, a Cas9-encoding plasmid comprising a puromycin-resistance cassette was co-transfected with a circular donor plasmid without a selection marker as well as specific synthetic crRNA and tracrRNA. The selection was carried out exclusively with puromycin on the Cas9-encoding plasmid.
In the first knock-in strategy, the cells were transfected with the Cas9-PuroR plasmid, the circular donor plasmid, as well as specific, synthetic crRNA and tracrRNA. The selection was made exclusively on the Cas9 plasmid with puromycin for 10 days. Thereafter, single cells of the cells transfected with crRNA1 (SEQ ID NO: 07) or crRNA2 (SEQ ID NO: 08), respectively, were deposited in ten 96-well plates. […] The increased FITC signal can be attributed to the expression of eGFP, which is only possible if the eGFP sequence from the donor plasmid has been introduced in-frame into a translated region in the genome, since the start codon is missing.
The growth rate of the deposited single cells was determined microscopically after 3 weeks, and totaled 63%. Subsequently, the cells by FACS were analyzed for their FITC signal (results in Table 1).
(§1) Using FACS sorting, the transfected and partially already selected cells were sorted. These were harvested, washed with PBS and adjusted to a cell number of 1×10^6 cells/mL in FACS buffer. After the desired cell population had been gated and all settings made on the device for sorting, the selected cells could be […]. The single cell deposit was performed in 96-well format. The plates were stored with 200 μL of medium per well at 37° C. in order to temper the medium and to keep the cell's stress as low as possible. Each knock-in trial involved deposition in between 20 and 24 plates. The cells then needed about 3 weeks in the incubator at 37° C. and 5% CO2 for growth. All plates were analyzed microscopically to determine the growth rate and the clones were then examined for eGFP expression.
(§2) The methodology was used primarily for the screening of the generated clones. For this purpose, the medium was completely removed from the 96-well plates, the cells were detached with 25 μL Accutase and resuspended with 40 μL FACS buffer. 40 μL of cell suspension was transferred to a 96-well conical-bottomed plate and measured directly on the FACS Canto II from BD. The eGFP signals of the clones were always referenced with HEK293A wild-type cells. The evaluation was done with the FlowJo v10.0.7 software. Potentially positive clones with a distinct eGFP signal were expanded and further characterized.

human TUBA1B locus [2] = assay: Knock-in Strategy V2: eGFP knock-in at TUBA1B, puromycin and hygromycin B double selection, FACS screen of clones for FITC signal; settings: for Efficiency (potentially positive clones / clones examined) / Number of potential clones (total number of examined clones in parentheses): HEK293A
Description: In the Knock-in Strategy V2, a Cas9-encoding plasmid comprising a puromycin-resistance cassette was co-transfected with a circular donor plasmid with a hygromycin B-resistance cassette as well as specific, synthetic crRNA and tracrRNA. The selection was carried out as double selection with hygromycin B for the donor plasmid and puromycin for the Cas9-encoding plasmid.
In the Knock-in Strategy V2, the cells were transfected with the identical crRNAs and tracrRNAs, as well as the Cas9-PuroR plasmid as in the Knock-in Strategy V1. Each of the three crRNAs (SEQ ID NO: 07-09) was combined with the linearized or circular donor plasmid with the hygromycin B-resistance cassette. Selection was performed via puromycin for the Cas9 plasmid and hygromycin B for the donor plasmid for a total of 10 days. Four 96-well plates with FITC-positive, viable single cells were subsequently deposited from each transfection. Differences in the FITC signal between the wild-type and the transfected cells were evident in the enlarged view of the histograms. The proportion of FITC-positive cells was between 0.4% and 3.8%. […] The most intense signal was found in the sample of crRNA3 and the circular donor plasmid (FIG. 13).
After a three-week incubation in the incubator, the growth rate of the deposited single cells was determined microscopically. It averaged 34.3%. All grown clones were analyzed by FACS for their FITC signal. An eGFP expression in the cells leads to the detection of an increased FITC signal compared to the wild-type, i.e. non-transfected cells. A total of 118 potentially positive clones were identified from a total of 496 analyzed clones. This corresponded to an overall efficiency of […]. The proportion of potentially positive clones among the samples containing the circular donor plasmid was 33.3%, more than twice as high as that for the linearized donor plasmid at 15.3% (Table 4).
as §1, §2

human TUBA1B locus [3] = assay: Knock-in Strategy V3: eGFP knock-in at TUBA1B, CD4 pool sorting and hygromycin B selection, FACS screen of clones for FITC signal; settings: HEK293A
Description: In the Knock-in Strategy V3, the Cas9 nuclease and the sgRNA were combined on a single plasmid. This additionally contained a CD4 marker for selection. The donor plasmid corresponded to that of the strategy V2. Thus, the double selection was carried out via hygromycin B for the donor plasmid, as well as for CD4 for the nuclease/gRNA plasmid.
In the Knock-in Strategy V3, the cells were transfected with the circular or linear donor plasmid and a pCas-Guide EF1α-CD4 plasmid. This plasmid, referred to as “all-in-one”, encodes the Cas9 nuclease, a gRNA and CD4. The selection was made in this strategy via hygromycin B for the donor plasmid, and with CD4 for the Cas9 nuclease and the gRNA. Three different pCas-Guide-EF1α-CD4 plasmids were used, each coding for one of the three gRNAs. […] About 48 hours after transfection, the cells were stained with an APC-conjugated anti-CD4 antibody. HEK293A wild-type cells natively express no CD4, so these cells defined the APC negative gate. Only cells that had taken up the pCas-Guide-EF1α-CD4 plasmid expressed CD4 on the cell surface, which was detectable by FACS via the elevated APC signal after staining with the antibody. […] The transfected cells are between 63% and 86% in the APC positive gate. Comparing the samples with linear and circular donor plasmid from each gRNA, it was possible to see that proportionally more APC and, thus, CD4 positive cells were detected in the samples with the circular donor plasmid. From each transfection approximately 5×10^5 CD4 positive cells were deposited as a cell pool using FACS sorting (FIG. 16).
The cells were cultured after pool sorting for 24 h in 6-well plates. Next, selection with hygromycin B was performed for the donor plasmid for 10 days. Subsequently, single cells from each transfection were deposited in four 96-well plates. Differences in the FITC signal between the wild-type and the transfected samples were evident in the enlarged view of the histograms. […] Gating on FITC-positive cells was therefore almost impossible. To the extent possible, viable single cells were deposited from the FITC-positive gate (FIG. 17).
Three weeks after single cell deposition, the first screening of the clones for the FITC signal followed and, thus, the presence of eGFP in the FACS. Previously, an average growth rate of 43% had been determined microscopically. A total of 952 clones were screened, of which 33 were identified as potentially positive clones. This corresponded to an efficiency of 3.4%. No clones could be identified in the three samples 1L, 3L and 3Z. Again, it was possible to see that the circular donor plasmid samples yielded more potentially positive clones than did samples with the linearized donor plasmid (Table 7).
In the knock-in V3, the pCas9-Guide-EF1α-CD4 plasmid contains a CD4 cassette as a selection marker. To select the CD4-positive cells, the cells were harvested 48 hours after transfection and washed twice with PBS. Next, the cells were resuspended in 250 μL FACS buffer and 5 μL α-CD4-Alexa 647 antibody added. This corresponded to a final antibody concentration of 1.5 μg/mL. After one hour of incubation on ice in the dark, the cells were washed three times with FACS buffer and then measured. For pool sorting, approximately 1.5×10^5 CD4-positive cells per sample were sorted into a 15 mL Falcon in which 5 mL of complete medium had already been placed. Subsequently, the cells were centrifuged for 5 min. at 300 g, resuspended in 3 mL fresh complete medium and seeded into a 6-well plate. After 24 hours the cells were again adherent and could be selected with hygromycin B on the donor plasmid. Once the selected cells had matured, the single-cell deposition in the 96-well format was again carried out.
The methodology was used primarily for the screening of the generated clones. For this purpose, the medium was completely removed from the 96-well plates, the cells were detached with 25 μL Accutase and resuspended with 40 μL FACS buffer. […]

[4] = Plates from gate P3, circular donor plasmid
[5] = Plates from gate P4 (FITC-positive), circular donor plasmid

Row | Substance | Efficiency (potentially positive clones / clones examined) (human TUBA1B locus [1]; [4]) | Number of potentially positive clones (total number of examined clones in parentheses) (human TUBA1B locus [1]; [4]) | Efficiency (potentially positive clones / clones examined) (human TUBA1B locus [1]; [5]) | Number of potentially positive clones (total number of examined clones in parentheses) (human TUBA1B locus [1]; [5]) | Efficiency (potentially positive clones / clones examined) (human TUBA1B locus [2]; Circular donor plasmid) | Number of potential clones (total number of examined clones in parentheses) (human TUBA1B locus [2]; Circular donor plasmid) | Efficiency (potentially positive clones / clones examined) (human TUBA1B locus [2]; Linear donor plasmid) | Number of potential clones (total number of examined clones in parentheses) (human TUBA1B locus [2]; Linear donor plasmid) | cells of the clones in the FITC-positive range (human TUBA1B locus [2]; clones with circular donor plasmid, after long-term cultivation, FACS) | Efficiency (potential clones / clones examined) (human TUBA1B locus [3]; Circular donor plasmid) | Number of potential clones (total number of examined clones in parentheses) (human TUBA1B locus [3]; Circular donor plasmid) | Efficiency (potential clones / clones examined) (human TUBA1B locus [3]; Linear donor plasmid) | Number of potential clones (total number of examined clones in parentheses) (human TUBA1B locus [3]; Linear donor plasmid)
1 | crRNA1: TUBA1B-specific synthetic crRNA (Dharmacon), SEQ ID NO: 07, GAGTGCATCTCCATCCACGT (synthetic crRNA bought from a supplier, chemistry not given here) | 0.44% | 2 (452) | 16.1% | 11 (68) | 53.3% | 40 (75) | 7.2% | 7 (97) |  |  |  |  | 
2 | crRNA2: TUBA1B-specific synthetic crRNA (Dharmacon), SEQ ID NO: 08, GGCCAGGCTGGTGTCCAGAT (synthetic crRNA bought from a supplier, chemistry not given here) | 0.25% | 1 (399) | 14.7% | 9 (64) | 1% | 1 (98) | 0% | 0 (81) |  |  |  |  | 
3 | crRNA3: TUBA1B-specific synthetic crRNA (Dharmacon), SEQ ID NO: 09, GAGCTCTACTGCCTGGAACA (synthetic crRNA bought from a supplier, chemistry not given here) |  |  |  |  | 60.7% | 37 (61) | 39.3% | 33 (84) | over 87% |  |  |  | 
4 | gRNA1: TUBA1B-specific gRNA encoded on the pCas-Guide-EF1α-CD4 all-in-one plasmid, oligos SEQ ID NO: 01 and 02 (DNA 1 GATCGGAGTGCATCTCCATCCACGTG; DNA 2 AAAACACGTGGATGGAGATGCACTCC; the letters are possibly those of the target site) |  |  |  |  |  |  |  |  |  | 19.4% | 12 (62) | 0% | 0 (195)
5 | gRNA2: TUBA1B-specific gRNA encoded on the pCas-Guide-EF1α-CD4 all-in-one plasmid, oligos SEQ ID NO: 03 and 04 (DNA 1 GATCGGGCCAGGCTGGTGTCCAGATG; DNA 2 AAAACATCTGGACACCAGCCTGGCCC; the letters are possibly those of the target site) |  |  |  |  |  |  |  |  |  | 6.5% | 14 (214) | 3.6% | 7 (195)
6 | gRNA3: TUBA1B-specific gRNA encoded on the pCas-Guide-EF1α-CD4 all-in-one plasmid, oligos SEQ ID NO: 05 and 06 (DNA 1 GATCGGAGCTCTACTGCCTGGAACAG; DNA 2 AAAACTGTTCCAGGCAGTAGAGCTCC; the letters are possibly those of the target site) |  |  |  |  |  |  |  |  |  | 0% | 0 (105) | 0% | 0 (212)
